The source of these data is patent US20240368221A1, “IMPATIENS BALSAMINA-DERIVED ANTI-BACTERIAL PEPTIDE AND ANTI-BACTERIAL COMPOSITION CONTAINING SAME” (V&CO CO., LTD., priority 2021, published 2024).

Data set [1] has as its system Aspergillus niger KCTC 6317. It is filed as cell-based. On the procedure: (§1) To examine the antimicrobial and antifungal activity of the six types of peptide derivatives prepared in Example 1, antimicrobial and antifungal activity was analyzed using three types of bacterial strains and two types of fungal strains.
(§2) Specifically, to analyze antimicrobial and antifungal activity, a minimal inhibitory concentration (MIC) was measured. The three types of bacterial strains included Escherichia coli KCCM 41290, Staphylococcus aureus KCTC 1621, and Cutibacterium acnes KCTC 3314, and the two types of fungal strains included Candida albicans KCTC 17712, and Aspergillus niger KCTC 6317. The culture of Escherichia coli and Staphylococcus aureus was performed in Luria-Bertani (LB) medium (BD Difco), and the culture of Cutibacterium acnes was performed in reinforced clostridial medium (RCM, BD Difco). The culture of Candida albicans and Aspergillus niger was performed in potato dextrose (PD) medium (BD Difco). The pre-cultured microorganisms or spores were diluted in a medium to 5×10^3 CFU/mL, and each of the six types of peptide derivatives prepared in Example 1 was added at a predetermined concentration. Afterward, a bacterial strain was cultured at 37° C., a fungal strain was cultured at 25° C. for 18 to 24 hours, and optical densities (OD600) were measured using a microplate reader. Fluorescence values (Ex560 and Em600), instead of optical densities, were measured after adding a resazurin reagent to the Aspergillus niger medium to have a concentration of 100 μM. As a control, Ib-AMP4 was used, and the analysis results were expressed as the average of three repeated experiments.

Data set [2] deals with Candida albicans KCTC 17712. It is filed as cell-based. On the procedure: as §1, §2
Data set [3] has as its system Cutibacterium acnes KCTC 3314. The format is cell-based. The settings on record: KCTC 3314. On the procedure: as §1, §2
Data set [4] concerns Escherichia coli KCCM 41290. The format is cell-based. On the procedure:
as §1, §2

Data set [5] has as its system Staphylococcus aureus KCTC 1621. The format is cell-based. On the procedure:
as §1, §2

Data set [6] can be described thus: Cytotoxicity, WST-1 cell viability. The format is cell-based, murine. The following applies: mouse, L929 cells (murine fibroblast cell line). On the procedure:
(§3) Specifically, cytotoxicity was evaluated using a skin cell line, L929 cells (murine fibroblast cell line). In addition, as comparative groups, Ib-AMP4 and the bee venom-derived AMP, melittin, known to be highly cytotoxic, were used. The L929 cells were cultured in RPMI 1640 medium (Gibco), which was supplemented with 10% FBS (Sigma), antibiotic-antimycotic cocktail, penicillin G (100 IU/mL), streptomycin (100 μg/mL), and amphotericin B (250 ng/ml; Gibco), at 37° C. in 5% CO2. The cells were seeded in a 96-well plate at 1×10^4 cell/well, incubated for 18 hours, treated with each peptide at 1.25 to 160 µg/mL, and then incubated for 24 hours. 10 μL of WST-1 reagent was added to 100 μL of the medium and allowed to react at 37° C. for 30 minutes, and then absorbance (A450) was measured at 450 nm using a microplate reader. Instead of the peptides, 0.1% Triton X-100 and PBS were used as positive and negative controls, respectively, and cell viability was calculated based on the following equation: % Cell viability=[(A450 in peptide solution−A450 in PBS)/(A450 in 0.1% Triton X−100-A450 in PBS)]×100. The analysis results were expressed as mean±S.D of three repeated experiments.

The subject of data set [7] is L929 cells (murine fibroblast cell line). The experiment in a line: Cytotoxicity, WST-1 cell viability. It is filed as cell-based. On the procedure: as §3
A general note: Formazan colour is commonly taken as a measure of viable cells.

Data set [8] relates to sheep red blood cells (sRBCs). The experiment in a line: Hemolytic activity. The format is cell-based. The settings on record: for Hemolytic Activity (%): red cells of sheep. On the procedure:
Specifically, hemolytic activity was analyzed using sheep red blood cells (sRBCs). In addition, as comparative groups, Ib-AMP4 and melittin were used. Defibrinated sheep blood (MB cells) was centrifuged (4,000×g, 10 min, 4° C.), washed with PBS three times, and suspended in PBS, thereby preparing an sRBC solution (10% sRBC). 5% sRBC and each peptide were mixed to have a final concentration of 1.25 to 160 μg/mL, allowed to react at room temperature for 30 minutes, and centrifuged to collect a supernatant. The absorbance (A414) of hemoglobin eluted from the red blood cells in the collected supernatant was measured at 414 nm. 0.1% Triton X−100 was used as a positive control, PBS was used as a negative control, and hemolytic activity (% Hemolysis) was calculated based on the following equation: % Hemolysis=[(A414 in peptide solution−A414 in PBS)/(A414 in 0.1% Triton X−100−A414 in PBS)]×100.

In general, MIC refers to the lowest concentration that inhibits growth of the organism. Lower therefore signals greater potency. One may read the viability as a read-out of living cells in per cent, often relative to untreated cells.

Values after ≈ are worked out from the molar mass of the structure shown. Like-named read-outs stand apart in the source and are kept apart here. Where a SMILES comes first, the peptide text is derived from it. Where only a bound is given, the exact number is not on record here.

As to `N=C(N)NCCC[C@H](NC(=O)CNC(=O)[C@H](Cc1c[nH]c2ccccc12)NC(=O)[C@@H](N)CCC(=O)O)C(=O)N[C@@H](CCCNC(=N)N)C(=O)N[C@@H](CS)C(=O)N[C@@H](CS)C(=O)NCC(=O)N[C@@H](Cc1c[nH]c2ccccc12)C(=O)NCC(=O)N1CCC[C@H]1C(=O)NCC(=O)N[C@@H](CCCNC(=N)N)C(=O)N[C@@H](CCCNC(=N)N)C(=O)N[C@@H](Cc1ccc(O)cc1)C(=O)N[C@@H](CS)C(=O)N[C@@H](CCCNC(=N)N)C(=O)N[C@@H](CCCNC(=N)N)C(=O)N[C@@H](Cc1c[nH]c2ccccc12)C(=O)N[C@@H](CS)C(N)=O` [Ib-AMP4] (H-EWGRRCCGWGPGRRYCRRWC-NH2; N-terminus assumed), the MIC in data set [1] (Aspergillus niger, PD medium, 25° C., 18 to 24 hours, resazurin fluorescence) is 80 µg/mL (≈ 31.5 µM); in data set [2] (Candida albicans, PD medium, 25° C., 18 to 24 hours, OD600) it was 60 µg/mL (≈ 23.6 µM); in data set [3] it was above 100 µg/mL; in data set [4] (Escherichia coli, LB medium, 37° C., 18 to 24 hours, OD600), above 100 µg/mL; in data set [5] (Staphylococcus aureus, LB medium, 37° C., 18 to 24 hours, OD600), above 100 µg/mL. Besides, the “antimicrobial activity (in words)” value in data set [4] (Escherichia coli) and in data set [5] (Staphylococcus aureus) was “insignificant antimicrobial activity” each time. For the same compound, the viability at 24 h, 1.25 µg/mL in data set [6] (L929 cells, peptide 1.25 μg/mL, 24 hours, read-out: Relative cell viability (%)) is 95%. For the same compound, the viability at 24 h, 2.5 µg/mL in data set [6] (L929 cells, peptide 2.5 μg/mL, 24 hours, read-out: Relative cell viability (%)) was determined as 94.4%. Further, the viability at 24 h, 5 µg/mL in data set [6] (L929 cells, peptide 5.0 μg/mL, 24 hours, read-out: Relative cell viability (%)) was found to be 95.1%. Also, the viability at 24 h, 10 µg/mL in data set [6] (L929 cells, peptide 10 μg/mL, 24 hours, read-out: Relative cell viability (%)) came out at 95.7%. Further, the viability at 24 h, 20 µg/mL in data set [6] (L929 cells, peptide 20 μg/mL, 24 hours, read-out: Relative cell viability (%)) was 97.3%. In addition, the viability at 24 h, 40 µg/mL in data set [6] (L929 cells, peptide 40 μg/mL, 24 hours, read-out: Relative cell viability (%)) stood at 90.4%. The viability at 24 h, 80 µg/mL in data set [6] (L929 cells, peptide 80 μg/mL, 24 hours, read-out: Relative cell viability (%)) was 92.2%. Also, the viability at 24 h, 160 µg/mL in data set [6] (L929 cells, peptide 160 μg/mL, 24 hours, read-out: Relative cell viability (%)) was 89.2%. In data set [6] (L929 cells, peptide 160 g/mL as printed, read-out: cell viability), the viability at 24 h, 160 g/mL was at least 90%. For the same compound, the “cytotoxic activity (in words)” value in data set [7] (L929 cells) is “insignificant cytotoxic and hemolytic activity”. Moreover, the “Hemolytic Activity (%)” value in data set [8] (1.25 μg/mL) is 4.09%; in data set [8] (2.5 μg/mL) it was 4.47%; in data set [8] (5 μg/mL), 7.42%; in data set [8] (10 μg/mL), 8.42%; in data set [8] (20 μg/mL) it was 10.15%; in data set [8] (40 μg/mL), 15.79%. Further, the “Hemolytic Activity (%)” value in data set [8] (80 μg/mL) is reported as 16.61%. Also, the “hemolytic activity (in words)” value in data set [8] (sheep red blood cells) is “insignificant cytotoxic and hemolytic activity”.

On to `N=C(N)NCCC[C@H](NC(=O)[C@H](CCCNC(=N)N)NC(=O)[C@H](Cc1c[nH]c2ccccc12)NC(=O)[C@H](Cc1ccc(O)cc1)NC(=O)[C@H](CCCNC(=N)N)NC(=O)[C@H](CCCNC(=N)N)NC(=O)[C@H](Cc1c[nH]c2ccccc12)NC(=O)[C@@H]1CCCN1C(=O)CN)C(N)=O` [VESCA3] (H-GPWRRYWRR-NH2), for which the MIC in data set [1] (KCTC 6317) was found to be 40 µg/mL (≈ 30 µM). In data set [2] (KCTC 17712), this compound displayed an MIC of 20 µg/mL (≈ 15 µM). Besides, the MIC in data set [3] was above 100 µg/mL. This compound showed an MIC in data set [4] (KCCM 41290) of 60 µg/mL (≈ 45.1 µM). For the same compound, the MIC in data set [5] (KCTC 1621) came to 5 µg/mL (≈ 3.75 µM). For the same compound, in data set [6], the viability at 24 h, 1.25 µg/mL worked out at 96.7%; the viability at 24 h, 2.5 µg/mL was found to be 104%; the viability at 24 h, 5 µg/mL was determined as 104%; the viability at 24 h, 10 µg/mL was 97.1%. For the same compound, in data set [6], the viability at 24 h, 20 µg/mL worked out at 99.7%; the viability at 24 h, 40 µg/mL worked out at 91.9%; the viability at 24 h, 80 µg/mL was 91.6%; the viability at 24 h, 160 µg/mL turned out to be 94.9%. Besides, the viability at 24 h, 160 g/mL in data set [6] was at least 90%. Also, the “cytotoxic activity (in words)” value in data set [7] was “insignificant cytotoxic and hemolytic activity”. Further, in data set [8], the “hemolytic activity (in words)” value is “insignificant cytotoxic and hemolytic activity”.
